Experimental data taken from US20100160326A1, “PEST CONTROL AGENT CONTAINING NOVEL PYRIDYL-METHANAMINE DERIVATIVE OR SALT THEREOF” (ISHIHARA SANGYO KAISHA, LTD., priority 2006, published 2010).
Like-named read-outs stand apart in the source and are kept apart here.

Assays:
Assay type in all cases: in vivo
[1] = system: Green Peach Aphid (Myzus persicae); assay: Test on controlling effects against green peach aphid (leaf dip); conditions: foliar, 120 h
Text: Test on Controlling Effects Against Green Peach Aphid (Myzus persicae)
Mortality (%)=(1−(number of survived insects/number of treated insects))×100

[2] = system: Common Cutworm (Spodoptera litura); assay: Test on controlling effects against common cutworm (cabbage leaf disk dip); conditions: foliar
Text: Test on Controlling Effects Against Common Cutworm (Spodoptera litura)
Mortality (%)=(Number of dead larvae/number of released larvae)×100

[3] = system: Two-Spotted Spider Mite (Tetranychus urticae); assay: Test on adults of two-spotted spider mite (kidney bean leaf dip); conditions: foliar, adults dipped together with kidney bean leaf, second or third day after the treatment, 25° C.
Text: Test on Adults of Two-Spotted Spider Mite (Tetranychus urticae)
Mortality of adults (%)=(Number of dead two-spotted spider mites/Number of treated two-spotted spider mites)×100

[4] = 800 ppm, Japanese radish leaf dipped about 10 seconds, first instar nymphs, counted 5 days after the treatment, 25° C., read-out: mortality
[5] = 800 ppm, cabbage leaf disk dipped about 10 seconds, second-third instar larvae, fifth day after the release, 25° C., read-out: mortality

SMILES | mortality at 800 ppm ([1]; in Raphanus sativus) [%] | mortality at 800 ppm [2] [%] | mortality at 800 ppm [3] [%] | mortality at 800 ppm [1, 4] [%] | mortality at 800 ppm [2, 5] [%]
O=[N+]([O-])c1cnc(N(Cc2ccccn2)Cc2ccccn2)cc1C(F)(F)F [Compound No. 9, N,N-BIS(2-PYRIDYLMETHYL)-5-NITRO-4-(TRIFLUOROMETHYL)-2-PYRIDYLAMINE] | ≥ 90 | ≥ 90 | – | – | –
CC(c1cccnc1)N(Cc1ccccn1)c1cc(C(F)(F)F)c(Cl)c(Cl)n1 (stereo not drawn) [Compound No. 97, N-(1-(3-PYRIDYL)ETHYL)-N-(2-PYRIDYLMETHYL)-5,6-DICHLORO-4-TRIFLUOROMETHYL-2-PYRIDYLAMINE] | – | – | ≥ 90 | ≥ 90 | ≥ 90
FC(F)(F)c1cc(NCc2ccccn2)nc(Cl)c1Cl [Compound No. 118, N-(2-PYRIDYLMETHYL)-5,6-DICHLORO-4-(TRIFLUOROMETHYL)-2-PYRIDYLAMINE] | – | – | ≥ 90 | ≥ 90 | ≥ 90
FC(F)(F)c1cc(Br)nc(N(Cc2ccccn2)Cc2ccccn2)c1 [Compound No. 90, N,N-BIS(2-PYRIDYLMETHYL)-6-BROMO-4-(TRIFLUOROMETHYL)-2-PYRIDYLAMINE] | – | – | ≥ 90 | ≥ 90 | –
N#Cc1c(C(F)(F)F)cc(N(Cc2ccccn2)Cc2ccccn2)nc1Cl [Compound No. 24, N,N-bis(2-pyridylmethyl)-6-chloro-5-cyano-4-(trifluoromethyl)-2-pyridylamine] | ≥ 90 | ≥ 90 | – | – | –
C#Cc1nc(N(Cc2ccccn2)Cc2ccccn2)cc(C(F)(F)F)c1Cl [Compound No. 94, N,N-BIS(2-PYRIDYLMETHYL)-5-CHLORO-6-ETHYNYL-4-(TRIFLUOROMETHYL)-2-PYRIDYLAMINE] | – | – | ≥ 90 | ≥ 90 | –
C=CCN(Cc1ccccn1)c1cc(C(F)(F)F)c(Cl)c(Cl)n1 [Compound No. 55, N-ALLYL-N-(2-PYRIDYLMETHYL)-5,6-DICHLORO-4-(TRIFLUOROMETHYL)-2-PYRIDYLAMINE] | – | – | ≥ 90 | ≥ 90 | ≥ 90
FC(F)(F)c1cc(N(Cc2ccccn2)Cc2ccccn2)nc(Br)c1Cl [Compound No. 92, N,N-BIS(2-PYRIDYLMETHYL)-6-BROMO-5-CHLORO-4-(TRIFLUOROMETHYL)-2-PYRIDYLAMINE] | – | – | ≥ 90 | ≥ 90 | ≥ 90
FC(F)(F)c1cc(Cl)nc(NCc2ccccn2)c1 [Compound No. 128, N-(2-PYRIDYLMETHYL)-6-CHLORO-4-(TRIFLUOROMETHYL)-2-PYRIDYLAMINE] | – | – | – | ≥ 90 | –
FC(F)(F)c1cc(N(Cc2ccccn2)Cc2ccccn2)nc(C(F)(F)F)c1Cl [Compound No. 103, N,N-BIS(2-PYRIDYLMETHYL)-5-CHLORO-4,6-BIS(TRIFLUOROMETHYL)-2-PYRIDYLAMINE] | – | – | ≥ 90 | ≥ 90 | ≥ 90
